Experimental data published in the supplement of paper PMC10307832.

Tests used:
Experiment in all cases: relative viability (nuclei count vs DMSO), 5 days (fraction); higher = more cells survive
[1] = system: ABC-1
Procedure, shortened: (§1)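 Relative viability was taken as the ratio of nuclei in treated wells to nuclei in vehicle wells. Lung cancer cell lines in 1536-well plates received compounds by pin tool one day after seeding, either one drug alone or a fixed anchor-drug dose plus five library-drug doses (not always all listed) in √10 steps. Nuclei were counted on 4× images after 5 days of treatment, and values are medians of duplicate plates.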

[2] = system: EMC-BAC-2
Procedure, shortened: as §1

[3] = system: LCLC-97TM1
Procedure, shortened: as §1

[4] = system: NCI-H1355
Procedure, shortened: as §1

[5] = system: NCI-H1666
Procedure, shortened: as §1

[6] = system: NCI-H1755
Procedure, shortened: as §1

[7] = system: NCI-H1793
Procedure, shortened: as §1

[8] = system: NCI-H1944
Procedure, shortened: as §1

[9] = system: NCI-H1975
Procedure, shortened: as §1

[10] = system: NCI-H1993
Procedure, shortened: as §1

[11] = system: NCI-H2009
Procedure, shortened: as §1

[12] = system: NCI-H2126
Procedure, shortened: as §1

O=c1[nH]c2ccccc2n1C1CCN(CCCC(c2ccc(F)cc2)c2ccc(F)cc2)CC1 [Pimozide] + O=C(CCCCCCC(=O)Nc1ccccc1)NO [Vorinostat] (partner 1 µM)
relative viability ([1]; first compound 0.08 µM): 1.3
relative viability ([1]; first compound 0.253 µM): 1.15
relative viability ([1]; first compound 0.8 µM): 0.884
relative viability ([1]; first compound 2.53 µM): 0.908
relative viability ([1]; first compound 8 µM): 0.719
relative viability ([2]; first compound 0.08 µM): 0.433
relative viability ([2]; first compound 0.253 µM): 0.45
relative viability ([2]; first compound 0.8 µM): 0.384
relative viability ([2]; first compound 2.53 µM): 0.451
relative viability ([2]; first compound 8 µM): 0.456
relative viability ([3]; first compound 0.08 µM): 0.753
relative viability ([3]; first compound 0.253 µM): 0.738
relative viability ([3]; first compound 0.8 µM): 0.455
relative viability ([3]; first compound 2.53 µM): 0.526
relative viability ([3]; first compound 8 µM): 0.584
relative viability ([4]; first compound 0.08 µM): 0.592
relative viability ([4]; first compound 0.253 µM): 0.597
relative viability ([4]; first compound 0.8 µM): 0.547
relative viability ([4]; first compound 2.53 µM): 0.607
relative viability ([4]; first compound 8 µM): 0.608
relative viability ([5]; first compound 0.08 µM): 1.09
relative viability ([5]; first compound 0.253 µM): 0.905
relative viability ([5]; first compound 0.8 µM): 0.924
relative viability ([5]; first compound 2.53 µM): 0.991
relative viability ([5]; first compound 8 µM): 1.02
relative viability ([6]; first compound 0.08 µM): 0.886
relative viability ([6]; first compound 0.253 µM): 0.668
relative viability ([6]; first compound 0.8 µM): 0.721
relative viability ([6]; first compound 2.53 µM): 0.738
relative viability ([6]; first compound 8 µM): 0.682
relative viability ([7]; first compound 0.08 µM): 0.642
relative viability ([7]; first compound 0.253 µM): 0.761
relative viability ([7]; first compound 0.8 µM): 0.693
relative viability ([7]; first compound 2.53 µM): 0.761
relative viability ([7]; first compound 8 µM): 0.624
relative viability ([8]; first compound 0.08 µM): 0.563
relative viability ([8]; first compound 2.53 µM): 0.636
relative viability ([8]; first compound 8 µM): 0.47
relative viability ([9]; first compound 0.08 µM): 0.746
relative viability ([9]; first compound 0.253 µM): 0.676
relative viability ([9]; first compound 0.8 µM): 0.672
relative viability ([9]; first compound 2.53 µM): 0.696
relative viability ([9]; first compound 8 µM): 0.563
relative viability ([10]; first compound 0.08 µM): 0.502
relative viability ([10]; first compound 0.253 µM): 0.966
relative viability ([10]; first compound 0.8 µM): 0.68
relative viability ([10]; first compound 2.53 µM): 0.857
relative viability ([10]; first compound 8 µM): 0.533
relative viability ([11]; first compound 0.08 µM): 0.639
relative viability ([11]; first compound 0.253 µM): 0.764
relative viability ([11]; first compound 0.8 µM): 0.651
relative viability ([11]; first compound 2.53 µM): 0.698
relative viability ([11]; first compound 8 µM): 0.694
relative viability ([12]; first compound 0.08 µM): 0.704
relative viability ([12]; first compound 0.253 µM): 0.818
